This passage reports Kd and Selectivity ratio results from ChEMBL document CHEMBL3297712, “Chasing protons: how isothermal titration calorimetry, mutagenesis, and pKa calculations trace the locus of charge in ligand binding to a tRNA-binding enzyme” (J Med Chem, 2014).

Assay [1] is described as follows: Binding affinity to wild-type Zymomonas mobilis TGT overexpressed in Escherichia coli BL21(DE3) by isothermal titration calorimetric analysis. (In ITC the heat of successive injections is recorded.)
Assay [2] can be described thus: Binding affinity to Zymomonas mobilis TGT E235Q mutant overexpressed in Escherichia coli BL21(DE3) by isothermal titration calorimetric analysis.
A short description of assay [3]: Binding affinity to Zymomonas mobilis TGT D156N mutant expressed in Escherichia coli Rosetta 2(DE3) by isothermal titration calorimetric analysis.
Assay [4] relates to Zymomonas mobilis. Put plainly: Selectivity ratio of Kd for Zymomonas mobilis TGT D102N mutant to Kd for wild-type Zymomonas mobilis TGT.
For assay [5], the system named is Zymomonas mobilis. Description: Selectivity ratio of Kd for Zymomonas mobilis TGT D156N mutant to Kd for wild-type Zymomonas mobilis TGT.
Assay [6] is described as follows: Binding affinity to Zymomonas mobilis TGT D102N mutant overexpressed in Escherichia coli BL21(DE3) by isothermal titration calorimetric analysis.

What is called Kd is the equilibrium constant for the complex coming apart.

Molecules are shown by their SMILES.

For `Nc1nc2cc3[nH]c(NCCN4CCOCC4)nc3cc2c(=O)[nH]1`, the equilibrium dissociation constant (Kd) in assay [1] was 0.035 µM; in assay [2], 1.28 µM.
For `Cc1nc2cc3nc(N)[nH]c(=O)c3cc2[nH]1`, binding in assay [1] was put at a Kd of 0.288 µM.
The same measure, in the same setting: next, `CNc1nc2cc3c(=O)[nH]cnc3cc2[nH]1`: 0.411 µM.
Take `CNc1nc2cc3c(=O)[nH]c(N)nc3cc2[nH]1`: the Kd in assay [3] was found to be 0.188 µM; in assay [1] it was 0.0524 µM; in assay [6] it was 0.146 µM. Moreover, the results for the Selectivity ratio in assay [4] and in assay [5] were 3 and 4, respectively.
